One compound from patent publication US10774039B2, “Cyclopropene amino acids and methods” (United Kingdom Research and Innovation, priority 2014, dated 2020) can be followed below.

A short description of experiment [1]: In vitro labelling of purified sfGFP150 proteins with tetrazine-dye conjugate 4a, time course and rate constant. Conditions: restated in example 6. The procedure:
FIG. 2C: Determining the rate constant for labelling of sfGFP-3 (10.6 sfGFP incorporating 3 at position 150), with 10 equivalents of 4a. 2 nmol of purified sfGFP-3, (10.6 μM in 20 mM Tris-HCl, 100 mM NaCl, 2 mM EDTA, pH 7.4) were incubated with 20 nmol of tetrazine-dye conjugate 4a (10 μl of a 2 mM solution in DMSO). At different time points 8 μl, aliquots were taken from the solution and quenched with a 700-fold excess of BCN and plunged into liquid nitrogen. Samples were mixed with NuPAGE LDS sample buffer supplemented with 5% β-mercaptoethanol, heated for 10 min to 90° C. and analyzed by 4-12% SDS page. The amounts of labelled proteins were quantified by scanning the fluorescent bands with a Typhoon Trio phosphoimager (GE Life Sciences). Bands were quantified with the ImageQuant™ TL software (GE Life Sciences) using rubber band background subtraction. The rate constant was determined by fitting the data to a single-exponential equation. The calculated observed rate k′ was divided by the concentration of 4a to obtain rate constant k for the reaction. Measurements were done in triplicate. All data processing was performed using Kaleidagraph software (Synergy Software, Reading, UK). […]

For experiment [2], the target named is PylRS/tRNACUA pair (Methanosarcina mazei, UniProt Q8PWY1). Nature of the experiment: Amber suppression of mCherry-TAG-EGFP-HA in HEK293 cells (western blot). The experiment is classed as cell-based. Set-up: expressed in transfected cells; host or cells: HEK293 (ATCC CRL-1573). Conditions: amber stop codon. The procedure:
Anti-FLAG detected tagged PylRS. FIG. 8B: Specific labelling of mCh-TAG-EGFP-HA (immunoprecipitated from 10^6 cells) with 4a (20 μM in 50 μL PBS, 1 h, RT) confirms the incorporation of 3 into protein in HEK293 cells. FIG. 8C: SORT-M labelling of 3 that is statistically incorporated into newly synthesised proteins across the whole proteome of mammalian cells directed by six different PylRS/PyltRNAXXX (mutants using 0.5 mM 3. Labeling with 4g (20 μM in PBS, 1 h, RT, as above). The amino acids in parentheses are the natural amino acids encoded by the endogenous tRNA bearing the corresponding anti-codon.
HEK293 Cells (ATCC CRL-1573) were plated on 24 well plates and grown to near confluence. The cells were transfected using Lipofectamine 2000 (Invitrogen) with the pMmPylS-mCherry-TAG-EGFP-HA construct and the p4CMVE-U6-PylT construct.^18 After 16 hrs growth with or without 1 mM 3 or with 1 mM 1 the cells were lysed on ice using RIPA buffer (Sigma). The lysates were spun down and the supernatant was added to 4×LDS sample buffer (Life technologies). The samples were run out by SDS-PAGE, transferred to a nitrocellulose membrane and blotted using primary rat anti-HA(clone 3F10, Roche, No. 867 423) and mouse anti-FLAG (clone G191, Abnova, cat. MAB8183), the secondary antibodies were anti-rat (Invitrogen, A11077) and anti-mouse (Cell Signaling Technologies, No. 7076S).
(In general: A western blot detects proteins with antibodies after separation by electrophoresis.)

PylRS/tRNACUA pair, sequence (Q8PWY1 whole entry): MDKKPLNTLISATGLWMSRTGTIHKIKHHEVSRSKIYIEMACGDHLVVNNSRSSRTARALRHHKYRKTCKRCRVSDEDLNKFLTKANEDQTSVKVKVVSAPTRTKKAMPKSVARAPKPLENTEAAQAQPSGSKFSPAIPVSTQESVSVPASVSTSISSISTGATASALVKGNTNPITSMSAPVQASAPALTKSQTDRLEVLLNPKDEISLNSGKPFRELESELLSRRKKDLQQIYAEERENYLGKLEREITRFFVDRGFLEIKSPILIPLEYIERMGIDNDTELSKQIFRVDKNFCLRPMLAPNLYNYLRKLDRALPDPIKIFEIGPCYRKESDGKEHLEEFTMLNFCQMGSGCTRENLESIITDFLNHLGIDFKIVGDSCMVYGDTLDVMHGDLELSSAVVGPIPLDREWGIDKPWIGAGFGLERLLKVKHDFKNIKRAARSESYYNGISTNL

On to `CC1=CC1COC(=O)NCCCC[C@H](N)C(=O)O` (stereo partly drawn) [amino acid 3, N^ε-[((2-methylcycloprop-2-en-1-yl)methoxy)carbonyl]-L-lysine], for which, in experiment [1], the “on-protein rate constants of reaction with tetrazines” value is 27 M⁻¹ s⁻¹. For the same compound, the “full-length mCherry-EGFP-HA protein expression” value in experiment [2] was “detected only in the presence”.
